Calls of active or inactive are those of the source. No cut-off for these calls is given here.
Key:
TGF-beta receptor type-1 = molecular target: T1, TGF-beta receptor type-1 (Homo sapiens, UniProt P36897); test: Inhibition of human ALK5 expressed in Sf9 insect cells using casein as substrate in presence of [gamma-33P]ATP; format: cell-based
T1 sequence (P36897 whole entry): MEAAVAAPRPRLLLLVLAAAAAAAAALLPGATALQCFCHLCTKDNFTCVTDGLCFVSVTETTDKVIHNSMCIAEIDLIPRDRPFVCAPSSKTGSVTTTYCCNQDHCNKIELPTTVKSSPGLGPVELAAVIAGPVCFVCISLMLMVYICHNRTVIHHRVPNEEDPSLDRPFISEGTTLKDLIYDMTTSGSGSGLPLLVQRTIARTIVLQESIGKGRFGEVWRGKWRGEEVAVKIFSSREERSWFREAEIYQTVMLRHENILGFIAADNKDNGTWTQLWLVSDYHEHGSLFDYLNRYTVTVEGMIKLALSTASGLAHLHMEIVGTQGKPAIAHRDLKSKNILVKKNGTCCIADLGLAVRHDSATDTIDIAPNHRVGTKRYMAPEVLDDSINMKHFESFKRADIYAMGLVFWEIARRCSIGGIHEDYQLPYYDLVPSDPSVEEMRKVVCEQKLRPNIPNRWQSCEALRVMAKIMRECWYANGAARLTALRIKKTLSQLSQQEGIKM

[1] = molecular target: Cyclin-dependent kinase 2/cyclin E1 (Homo sapiens, UniProt P24941); test: Inhibition of human CDK2/cyclin E expressed in Sf9 insect cells using histone H1 as substrate in presence of [gamma-33P]ATP; format: cell-based
MCF7 = test: Cytotoxicity against human MCF7 cells assessed as decrease in cell proliferation after 72 hrs by calcein AM staining-based assay; format: functional; settings: MCF7, 72 h
HeLa = test: Cytotoxicity against human HeLa cells assessed as decrease in cell proliferation up to 100 uM after 72 hrs by calcein AM staining-based assay
BJ = test: Cytotoxicity against human BJ cells assessed as decrease in cell proliferation up to 100 uM after 72 hrs by calcein AM staining-based assay
[2] = molecular target: T2, TGF-beta receptor type-1 (Homo sapiens) (UniProt P36897); test: Inhibition of ALK5 in serum starved human HeLa cells assessed as reduction in TGF-beta-induced SMAD2 S465/467 phosphorylation pre-incubated for 30 mins before TGF-beta stimulation for 30 mins by immunoblotting analysis; format: cell-based
T2 sequence (whole entry): T1 sequence (P36897 whole entry)

[3] = molecular target: T2, TGF-beta receptor type-1 (Homo sapiens); test: Inhibition of ALK5 in serum starved human HeLa cells assessed as reduction in TGF-beta-induced SMAD2/3 nuclear transaction at 10 uM pre-incubated for 30 mins before TGF-beta stimulation for 30 mins by immunofluorescence analysis; format: cell-based
[4] = molecular target: Receptor-interacting serine/threonine-protein kinase 2 (Homo sapiens) (UniProt O43353); test: Inhibition of RIPK2 (unknown origin) assessed as residual enzyme activity at 1 uM relative to untreated control
Receptor-interacting serine/threonine-protein kinase 2 (Homo sapiens), sequence (O43353 whole entry, canonical isoform): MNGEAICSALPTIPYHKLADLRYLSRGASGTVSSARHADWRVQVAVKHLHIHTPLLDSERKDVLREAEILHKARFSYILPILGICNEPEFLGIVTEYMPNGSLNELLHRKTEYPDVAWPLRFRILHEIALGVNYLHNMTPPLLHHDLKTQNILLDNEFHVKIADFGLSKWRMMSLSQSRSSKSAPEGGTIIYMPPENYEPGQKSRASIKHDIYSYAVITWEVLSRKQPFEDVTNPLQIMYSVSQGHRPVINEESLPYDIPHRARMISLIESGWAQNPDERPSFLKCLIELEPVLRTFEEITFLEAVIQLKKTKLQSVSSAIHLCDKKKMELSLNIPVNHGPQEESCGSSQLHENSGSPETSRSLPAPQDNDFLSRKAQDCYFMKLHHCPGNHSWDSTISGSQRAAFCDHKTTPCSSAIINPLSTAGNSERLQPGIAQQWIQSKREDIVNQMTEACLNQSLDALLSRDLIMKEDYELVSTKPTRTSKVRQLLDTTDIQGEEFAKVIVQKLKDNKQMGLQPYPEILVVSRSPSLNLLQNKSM

[5] = molecular target: Casein kinase I isoform delta (Homo sapiens) (UniProt P48730); test: Inhibition of CK1delta (unknown origin) assessed as residual enzyme activity at 1 uM relative to untreated control
Casein kinase I isoform delta (Homo sapiens), sequence (P48730 whole entry, looked up, canonical isoform): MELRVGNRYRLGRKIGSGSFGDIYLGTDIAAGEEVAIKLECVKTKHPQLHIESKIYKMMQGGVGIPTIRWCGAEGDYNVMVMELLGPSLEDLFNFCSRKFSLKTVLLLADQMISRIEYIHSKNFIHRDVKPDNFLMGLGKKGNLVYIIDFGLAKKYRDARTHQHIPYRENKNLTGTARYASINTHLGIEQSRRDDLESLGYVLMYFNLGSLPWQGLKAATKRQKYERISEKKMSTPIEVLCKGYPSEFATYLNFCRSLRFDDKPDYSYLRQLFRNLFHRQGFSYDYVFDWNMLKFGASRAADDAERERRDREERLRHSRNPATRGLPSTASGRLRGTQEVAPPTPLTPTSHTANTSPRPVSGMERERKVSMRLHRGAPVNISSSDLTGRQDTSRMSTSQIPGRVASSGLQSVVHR

[6] = molecular target: Casein kinase 2 (Homo sapiens) (UniProt P67870+P68400+P19784+Q8NEV1); test: Inhibition of CK2 (unknown origin) assessed as residual enzyme activity at 1 uM relative to untreated control; format: protein assay
[7] = molecular target: Glycogen synthase kinase-3 beta (Homo sapiens) (UniProt P49841); test: Inhibition of GSK3beta (unknown origin) assessed as residual enzyme activity at 1 uM relative to untreated control
Glycogen synthase kinase-3 beta (Homo sapiens), sequence (P49841 whole entry, looked up): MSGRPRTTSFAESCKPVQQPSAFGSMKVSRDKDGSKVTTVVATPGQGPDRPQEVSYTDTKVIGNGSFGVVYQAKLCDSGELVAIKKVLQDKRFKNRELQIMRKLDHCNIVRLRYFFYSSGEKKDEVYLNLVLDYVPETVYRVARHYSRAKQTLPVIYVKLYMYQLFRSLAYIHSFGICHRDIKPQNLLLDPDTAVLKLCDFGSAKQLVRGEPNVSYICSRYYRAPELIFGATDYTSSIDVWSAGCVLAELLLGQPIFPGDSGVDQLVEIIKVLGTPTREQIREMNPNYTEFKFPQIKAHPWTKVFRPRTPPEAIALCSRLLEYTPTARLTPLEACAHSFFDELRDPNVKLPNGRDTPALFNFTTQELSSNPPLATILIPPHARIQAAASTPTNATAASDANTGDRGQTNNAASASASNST

Homo sapiens = species on record: Homo sapiens; test: Inhibition of PKA (unknown origin) assessed as residual enzyme activity at 1 uM relative to untreated control
[8] = molecular target: Vascular endothelial growth factor receptor (Homo sapiens) (UniProt P17948+P35916+P35968); test: Inhibition of VEGFR (unknown origin) assessed as residual enzyme activity at 1 uM relative to untreated control; format: protein assay
[9] = molecular target: Tyrosine-protein kinase BTK (Homo sapiens) (UniProt Q06187); test: Inhibition of BTK (unknown origin) assessed as residual enzyme activity at 1 uM relative to untreated control
Tyrosine-protein kinase BTK (Homo sapiens), sequence (Q06187 whole entry): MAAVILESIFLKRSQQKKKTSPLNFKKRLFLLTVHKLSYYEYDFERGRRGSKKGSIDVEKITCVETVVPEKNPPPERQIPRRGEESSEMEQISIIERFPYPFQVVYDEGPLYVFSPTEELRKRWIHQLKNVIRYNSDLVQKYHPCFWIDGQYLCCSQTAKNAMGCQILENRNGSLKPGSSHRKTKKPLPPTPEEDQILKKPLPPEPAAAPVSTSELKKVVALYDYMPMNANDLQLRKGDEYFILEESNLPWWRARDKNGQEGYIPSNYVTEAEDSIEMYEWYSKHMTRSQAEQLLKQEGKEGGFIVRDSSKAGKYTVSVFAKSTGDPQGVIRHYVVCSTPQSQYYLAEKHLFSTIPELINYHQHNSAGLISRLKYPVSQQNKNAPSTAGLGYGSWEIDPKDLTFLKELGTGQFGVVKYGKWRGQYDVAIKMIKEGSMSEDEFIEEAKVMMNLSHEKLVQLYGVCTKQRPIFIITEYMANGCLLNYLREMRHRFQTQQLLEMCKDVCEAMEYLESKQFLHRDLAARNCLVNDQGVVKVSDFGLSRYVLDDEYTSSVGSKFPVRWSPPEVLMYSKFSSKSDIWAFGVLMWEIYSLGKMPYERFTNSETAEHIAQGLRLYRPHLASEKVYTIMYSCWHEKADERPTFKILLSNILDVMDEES

[10] = molecular target: Calcium/calmodulin-dependent protein kinase kinase 2 (Homo sapiens) (UniProt Q96RR4); test: Inhibition of CAMKKbeta (unknown origin) assessed as residual enzyme activity at 1 uM relative to untreated control
[11] = molecular target: Eukaryotic elongation factor 2 kinase (Homo sapiens) (UniProt O00418); test: Inhibition of EF2K (unknown origin) assessed as residual enzyme activity at 1 uM relative to untreated control
[12] = molecular target: Ephrin type-A receptor 2 (Homo sapiens) (UniProt P29317); test: Inhibition of EPHA2 (unknown origin) assessed as residual enzyme activity at 1 uM relative to untreated control
[13] = molecular target: Homeodomain-interacting protein kinase 2 (Homo sapiens) (UniProt Q9H2X6); test: Inhibition of HIPK2 (unknown origin) assessed as residual enzyme activity at 1 uM relative to untreated control
Homeodomain-interacting protein kinase 2 (Homo sapiens), sequence (Q9H2X6 whole entry, looked up): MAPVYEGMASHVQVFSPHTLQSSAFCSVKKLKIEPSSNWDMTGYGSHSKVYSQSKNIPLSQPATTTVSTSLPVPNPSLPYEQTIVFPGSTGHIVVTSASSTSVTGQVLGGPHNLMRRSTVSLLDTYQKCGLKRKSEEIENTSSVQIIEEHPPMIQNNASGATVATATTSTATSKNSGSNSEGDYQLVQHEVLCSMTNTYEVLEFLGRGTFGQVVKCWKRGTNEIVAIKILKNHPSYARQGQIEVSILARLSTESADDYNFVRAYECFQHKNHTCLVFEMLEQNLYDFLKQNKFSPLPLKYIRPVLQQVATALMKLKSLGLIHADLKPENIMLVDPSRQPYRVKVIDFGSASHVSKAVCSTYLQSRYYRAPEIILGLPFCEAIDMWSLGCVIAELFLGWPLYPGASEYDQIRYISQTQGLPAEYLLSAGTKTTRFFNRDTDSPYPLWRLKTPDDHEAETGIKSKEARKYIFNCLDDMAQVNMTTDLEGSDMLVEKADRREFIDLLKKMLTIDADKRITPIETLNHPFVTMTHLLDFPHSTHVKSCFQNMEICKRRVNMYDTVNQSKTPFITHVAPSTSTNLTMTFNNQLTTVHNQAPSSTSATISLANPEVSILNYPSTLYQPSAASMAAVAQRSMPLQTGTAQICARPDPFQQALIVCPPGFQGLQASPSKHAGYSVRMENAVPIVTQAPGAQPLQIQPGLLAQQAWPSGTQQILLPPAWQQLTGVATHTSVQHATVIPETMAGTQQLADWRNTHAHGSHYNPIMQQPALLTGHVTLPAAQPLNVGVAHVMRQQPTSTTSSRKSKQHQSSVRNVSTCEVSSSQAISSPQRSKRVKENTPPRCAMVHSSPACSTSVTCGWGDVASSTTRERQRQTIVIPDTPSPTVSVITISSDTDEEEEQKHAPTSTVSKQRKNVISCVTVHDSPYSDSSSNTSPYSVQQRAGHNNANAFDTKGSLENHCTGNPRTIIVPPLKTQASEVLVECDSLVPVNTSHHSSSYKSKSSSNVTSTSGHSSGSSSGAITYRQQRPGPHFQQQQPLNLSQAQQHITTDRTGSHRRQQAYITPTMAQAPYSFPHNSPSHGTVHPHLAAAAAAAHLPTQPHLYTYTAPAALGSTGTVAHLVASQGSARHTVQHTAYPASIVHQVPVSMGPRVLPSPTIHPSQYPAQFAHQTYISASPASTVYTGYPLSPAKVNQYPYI

[14] = molecular target: Serine/threonine-protein kinase Chk2 (Homo sapiens) (UniProt O96017); test: Inhibition of CHK2 (unknown origin) assessed as residual enzyme activity at 1 uM relative to untreated control
[15] = molecular target: Tyrosine-protein kinase JAK2 (Homo sapiens) (UniProt O60674); test: Inhibition of JAK2 (unknown origin) assessed as residual enzyme activity at 1 uM relative to untreated control
[16] = molecular target: Tyrosine-protein kinase Lck (Homo sapiens) (UniProt P06239); test: Inhibition of LCK (unknown origin) assessed as residual enzyme activity at 1 uM relative to untreated control
[17] = molecular target: Ribosomal protein S6 kinase alpha-5 (Homo sapiens) (UniProt O75582); test: Inhibition of MSK1 (unknown origin) assessed as residual enzyme activity at 1 uM relative to untreated control
[18] = molecular target: 3-phosphoinositide-dependent protein kinase 1 (Homo sapiens) (UniProt O15530); test: Inhibition of PDK1 (unknown origin) assessed as residual enzyme activity at 1 uM relative to untreated control
3-phosphoinositide-dependent protein kinase 1 (Homo sapiens), sequence (O15530 whole entry): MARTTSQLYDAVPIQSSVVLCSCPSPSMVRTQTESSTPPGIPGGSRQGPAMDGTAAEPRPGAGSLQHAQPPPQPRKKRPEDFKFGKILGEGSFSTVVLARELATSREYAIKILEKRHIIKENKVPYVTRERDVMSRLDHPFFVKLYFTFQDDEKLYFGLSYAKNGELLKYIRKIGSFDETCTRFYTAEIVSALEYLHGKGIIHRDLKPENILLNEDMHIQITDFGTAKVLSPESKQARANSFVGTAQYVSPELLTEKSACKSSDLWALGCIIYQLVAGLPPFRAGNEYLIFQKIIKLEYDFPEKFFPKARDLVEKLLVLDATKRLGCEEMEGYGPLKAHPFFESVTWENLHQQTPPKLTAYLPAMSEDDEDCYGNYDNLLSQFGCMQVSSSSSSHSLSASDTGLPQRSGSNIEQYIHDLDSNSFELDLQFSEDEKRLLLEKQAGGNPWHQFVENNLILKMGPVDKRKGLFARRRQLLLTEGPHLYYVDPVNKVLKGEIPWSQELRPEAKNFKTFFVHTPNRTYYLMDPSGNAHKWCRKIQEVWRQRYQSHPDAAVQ

[19] = molecular target: Protein kinase C alpha type (Homo sapiens) (UniProt P17252); test: Inhibition of PKCalpha (unknown origin) assessed as residual enzyme activity at 1 uM relative to untreated control
[20] = molecular target: Proto-oncogene tyrosine-protein kinase Src (Homo sapiens) (UniProt P12931); test: Inhibition of SRC (unknown origin) assessed as residual enzyme activity at 1 uM relative to untreated control
Proto-oncogene tyrosine-protein kinase Src (Homo sapiens), sequence (P12931 2-536 limits assumed): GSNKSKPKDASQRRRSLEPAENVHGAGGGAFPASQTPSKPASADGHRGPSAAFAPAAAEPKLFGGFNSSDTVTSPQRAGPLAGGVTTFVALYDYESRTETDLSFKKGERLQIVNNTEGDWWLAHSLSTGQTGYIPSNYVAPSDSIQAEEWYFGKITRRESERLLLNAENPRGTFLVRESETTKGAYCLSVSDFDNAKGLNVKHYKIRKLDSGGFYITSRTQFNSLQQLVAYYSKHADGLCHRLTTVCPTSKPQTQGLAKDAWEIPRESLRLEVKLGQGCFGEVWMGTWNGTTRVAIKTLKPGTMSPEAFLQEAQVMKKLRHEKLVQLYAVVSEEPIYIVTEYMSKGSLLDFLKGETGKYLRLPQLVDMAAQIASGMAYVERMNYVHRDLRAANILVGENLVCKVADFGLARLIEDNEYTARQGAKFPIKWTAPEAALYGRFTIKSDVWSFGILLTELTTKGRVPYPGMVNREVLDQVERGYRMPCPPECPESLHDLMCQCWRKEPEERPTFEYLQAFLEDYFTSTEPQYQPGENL

[21] = molecular target: SRSF protein kinase 1 (Homo sapiens) (UniProt Q96SB4); test: Inhibition of SRPK1 (unknown origin) assessed as residual enzyme activity at 1 uM relative to untreated control
[22] = molecular target: High affinity nerve growth factor receptor (Homo sapiens) (UniProt P04629); test: Inhibition of TRKA (unknown origin) assessed as residual enzyme activity at 1 uM relative to untreated control
[23] = molecular target: Dual specificity protein kinase TTK (Homo sapiens) (UniProt P33981); test: Inhibition of TTK (unknown origin) assessed as residual enzyme activity at 1 uM relative to untreated control
[24] = molecular target: T2, TGF-beta receptor type-1 (Homo sapiens); settings: HeLa, at 1 µM
Description: Inhibition of ALK5 in serum starved human HeLa cells assessed as reduction in TGF-beta-induced SMAD2/3 nuclear transaction at 1 uM pre-incubated for 30 mins before TGF-beta stimulation for 30 mins by immunofluorescence analysis

With `Cc1cccc(-c2nn3c(c2-c2ccc(O)cc2)C(C)C(C)(C)C3)n1` (centres undefined) the IC50 (TGF-beta receptor type-1) was 0.08 µM, the IC50 [1] was greater than 100 µM and the IC50 (MCF7) was greater than 100 µM. The Activity (HeLa) was “Non-Toxic”, the Activity (BJ) was “Non-Toxic” and the inhibition [2] was “Dose-dependent effect”. For the same molecule, the inhibition [3] was 100%, the Activity [4] was 11% and the Activity [5] was 34%. It also gave an Activity [6] of 60 to 80%, an Activity [7] of 60 to 80% and an Activity (Homo sapiens) of 60 to 80%. For the same molecule, the Activity [8] was 60 to 80%, the Activity [9] was greater than 80% and the Activity [10] was greater than 80%. For the same molecule, the Activity [11] was greater than 80%, the Activity [12] was greater than 80% and the Activity [13] was greater than 80%. The Activity [14] was greater than 80%, the Activity [15] was greater than 80% and the Activity [16] was greater than 80%. It also gave an Activity [17] greater than 80%, an Activity [18] greater than 80% and an Activity [19] greater than 80%. It also gave an Activity [20] greater than 80%, an Activity [21] greater than 80% and an Activity [22] greater than 80%. The Activity [23] was greater than 80% and the inhibition [24] was “Active”.
